Activity calls are given as the source filed them. Cut-off read from the data, not from the text of the source, for most assays here: actives have a measured EC50 and inactives only a lower limit. Some results are limits rather than exact numbers.

Here are results for 29 molecules from ChEMBL document CHEMBL1201862, “PubChem BioAssay data set” (2004).

The target of experiment [1] is T1, Zinc finger protein mex-5 (Caenorhabditis elegans, UniProt Q9XUB2).
T1 sequence (Q9XUB2 whole entry): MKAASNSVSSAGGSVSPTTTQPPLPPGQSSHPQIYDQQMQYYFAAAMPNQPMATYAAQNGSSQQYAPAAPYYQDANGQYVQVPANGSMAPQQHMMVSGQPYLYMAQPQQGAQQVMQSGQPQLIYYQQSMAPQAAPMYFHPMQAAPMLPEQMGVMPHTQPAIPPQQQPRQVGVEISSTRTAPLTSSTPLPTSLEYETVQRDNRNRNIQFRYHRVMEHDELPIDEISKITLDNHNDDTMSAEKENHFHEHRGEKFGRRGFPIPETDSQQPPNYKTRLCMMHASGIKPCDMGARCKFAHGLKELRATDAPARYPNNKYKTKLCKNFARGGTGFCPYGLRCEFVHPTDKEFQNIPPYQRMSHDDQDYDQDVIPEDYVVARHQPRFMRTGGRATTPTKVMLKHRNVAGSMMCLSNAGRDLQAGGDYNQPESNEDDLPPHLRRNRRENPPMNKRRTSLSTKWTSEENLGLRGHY
Put plainly: MEX-5/TCR-2 RNA interaction inhibitors, dose response, biochemical, C. elegans, fluorescence polarization (AID 1960). Background: Polarisation of emitted light reports the rotation of a fluorescent probe.

Experiment [2] concerns the target T2, RNA-binding protein pos-1 (Caenorhabditis elegans, UniProt G5EF15).
T2 sequence (G5EF15 whole entry): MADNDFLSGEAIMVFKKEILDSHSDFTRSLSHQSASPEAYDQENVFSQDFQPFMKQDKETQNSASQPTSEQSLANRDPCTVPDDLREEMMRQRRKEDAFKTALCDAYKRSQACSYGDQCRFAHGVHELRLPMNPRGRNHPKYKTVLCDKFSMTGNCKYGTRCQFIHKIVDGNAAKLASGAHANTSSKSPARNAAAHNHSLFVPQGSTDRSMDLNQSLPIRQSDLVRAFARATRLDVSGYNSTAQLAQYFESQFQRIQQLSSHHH
Put plainly: inhibitors of POS-1/mex-3 RNA binding, dose response, biochemical, fluorescence polarization (AID 1964).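 Note: purified POS-1 fused to maltose binding protein made in E. coli; potency of compounds blocking POS-1 binding to fluorescent RNA.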

A short description of experiment [3]: Luminescence Cell-Based Dose Confirmation HTS to Identify Inhibitors of Platelet Dense Granule Release. [Related pubchem assays: 1663 (Primary HTS), 1678 (Summary of Project)]. In kind it is functional.
The target in experiment [4] is Luciferin 4-monooxygenase (Photinus pyralis, UniProt P08659). Description: firefly luciferase enzyme inhibitors, dose response, biochemical, luminescence (AID 1891).
Sequence of Luciferin 4-monooxygenase (P08659 whole entry): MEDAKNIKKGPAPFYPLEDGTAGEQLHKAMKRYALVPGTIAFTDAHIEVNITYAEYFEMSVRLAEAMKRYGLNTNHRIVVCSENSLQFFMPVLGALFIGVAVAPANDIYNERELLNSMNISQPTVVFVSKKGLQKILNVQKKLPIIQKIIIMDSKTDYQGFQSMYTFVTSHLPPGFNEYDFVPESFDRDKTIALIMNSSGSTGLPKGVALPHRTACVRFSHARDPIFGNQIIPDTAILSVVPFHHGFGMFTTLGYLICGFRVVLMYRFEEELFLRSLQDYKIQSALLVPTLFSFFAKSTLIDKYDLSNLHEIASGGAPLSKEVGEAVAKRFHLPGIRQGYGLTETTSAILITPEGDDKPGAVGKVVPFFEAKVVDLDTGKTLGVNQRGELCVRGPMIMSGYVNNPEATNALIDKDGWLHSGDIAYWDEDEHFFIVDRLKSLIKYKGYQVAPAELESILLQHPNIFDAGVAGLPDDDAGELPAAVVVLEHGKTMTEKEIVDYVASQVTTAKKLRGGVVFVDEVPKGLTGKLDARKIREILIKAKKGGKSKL
The target of experiment [5] is T3, Corticotropin-releasing factor receptor 2/Corticotropin-releasing factor-binding protein (Homo sapiens, UniProt P24387+Q13324).
T3 sequence (Q13324 whole entry): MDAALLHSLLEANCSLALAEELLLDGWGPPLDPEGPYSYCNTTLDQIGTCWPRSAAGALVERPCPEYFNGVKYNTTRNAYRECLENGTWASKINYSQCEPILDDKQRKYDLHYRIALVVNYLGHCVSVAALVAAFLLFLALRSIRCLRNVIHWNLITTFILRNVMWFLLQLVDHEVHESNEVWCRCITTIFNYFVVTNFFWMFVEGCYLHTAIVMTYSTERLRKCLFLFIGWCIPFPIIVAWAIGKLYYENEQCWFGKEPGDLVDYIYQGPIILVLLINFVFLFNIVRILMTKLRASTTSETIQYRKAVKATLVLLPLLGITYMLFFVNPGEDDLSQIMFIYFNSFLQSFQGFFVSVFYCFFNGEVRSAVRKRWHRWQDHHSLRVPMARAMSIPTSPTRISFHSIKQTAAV
T3 sequence (P24387 whole entry): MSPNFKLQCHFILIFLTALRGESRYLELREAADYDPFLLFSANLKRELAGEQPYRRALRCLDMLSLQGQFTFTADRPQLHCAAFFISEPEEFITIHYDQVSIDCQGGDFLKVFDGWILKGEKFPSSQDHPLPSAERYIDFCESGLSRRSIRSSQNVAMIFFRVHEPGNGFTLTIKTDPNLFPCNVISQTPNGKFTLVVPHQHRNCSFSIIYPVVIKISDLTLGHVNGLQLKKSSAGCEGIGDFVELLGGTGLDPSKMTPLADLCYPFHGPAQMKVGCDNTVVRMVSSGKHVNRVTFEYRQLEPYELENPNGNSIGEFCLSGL
Description: activators of CRF receptor 2 with binding protein – uHTS hits, confirmation (AID 602473). In kind it is functional. To be noted: read-out: EC50_Mean.

The next experiment concerns H4. Description: Luminescence Cell-Based Dose Response HTS to Identify Activators of 5'UTR Stem-Loop Driven Prion Protein mRNA Translation in H4 Neuroglioblastoma Cells. [Related pubchem assays: 1829 (Project Summary), 1814 (Primary HTS)]. In kind it is functional. The conditions noted are these: Homo sapiens.
A short description of experiment [6]: Luminescence Cell-Based Dose Response HTS to Identify Activators of Luciferase Translation or Activity in H4 […] Cells. [Related pubchem assays: 1829 (Project Summary), 1814 (Primary HTS)]. It is filed as functional.
Experiment [7] can be described thus: Luminescence Cell-Based Dose Confirmation HTS to Identify Activators of 5'UTR Stem-Loop Driven Alpha-Synuclein mRNA Translation in H4 Neuroglioblastoma Cells. [Related pubchem assays: 1829 (Project Summary), 1814 (Primary HTS)]. In kind it is functional.
A short description of experiment [8]: cells. In kind it is functional, cell-based.
A short description of experiment [9]: cells. In kind it is functional, cell-based. The source holds these as a separate data set.
Experiment [10] deals with Streptococcus sp. 'group A'. Put plainly: growth inhibition of control SK(-) GAS strain, dose response, counter-screen for streptokinase expression inhibitor project, luminescence, kanamycin, BacTiterGlo, confirmation (AID 1900). In kind it is functional, organism-based. The conditions noted are these: Streptococcus sp. 'group A'.
The next experiment has as its system Streptococcus. Description: Group A Streptococcus viability loss, dose response, counter-screen for streptokinase expression inhibitor project, luminescence, BacTiterGlo (AID 1915).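 Note: potency for reduction of bacterial viability or growth.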 In kind it is functional, organism-based. To be noted: Streptococcus.
The target in a further experiment is T4, Streptokinase A (Streptococcus pyogenes serotype M1, UniProt P10520).
T4 sequence (P10520 whole entry): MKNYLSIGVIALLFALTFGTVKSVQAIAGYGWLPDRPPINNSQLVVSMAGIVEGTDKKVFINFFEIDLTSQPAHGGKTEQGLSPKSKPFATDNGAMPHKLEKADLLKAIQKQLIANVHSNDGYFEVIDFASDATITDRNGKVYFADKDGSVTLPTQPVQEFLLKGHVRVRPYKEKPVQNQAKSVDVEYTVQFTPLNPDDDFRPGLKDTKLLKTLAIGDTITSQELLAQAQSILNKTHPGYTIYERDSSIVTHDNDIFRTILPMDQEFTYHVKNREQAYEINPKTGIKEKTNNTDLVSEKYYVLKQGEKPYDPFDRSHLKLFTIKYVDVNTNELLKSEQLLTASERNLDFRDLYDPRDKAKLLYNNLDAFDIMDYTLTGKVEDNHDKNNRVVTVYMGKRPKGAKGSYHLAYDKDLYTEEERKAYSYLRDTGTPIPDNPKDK
Put plainly: S. pyogenes streptokinase expression inhibitors, potency, dose response, plasminogen activation absorbance, OD405 (AID 1914).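 Note: secreted streptokinase activity via plasminogen activation per viability signal from cell pellet.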 It is filed as functional, Streptococcus pyogenes M1 GAS.

A further experiment deals with INS1. Put plainly: beta cell apoptosis inhibitors, cytokine rescue, dose response, luminescence, retest (AID 449756).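 Note: cell death triggered by IL-1 beta plus TNF-alpha plus IFN-gamma mixture; protective hits raise ATP signal compared with cytokine alone wells.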 It is filed as functional, cell-based. To be noted: Rattus norvegicus.
Experiment [11] can be described thus: Luminescence Cell-Based Dose Retest to Confirm Inhibitors of Cancer Stem Cells. [Related pubchem assays (depositor defined):AID2717, AID2721]. It is filed as functional, Homo sapiens. The conditions noted are these: Homo sapiens.

With `Clc1cccc(CSc2nc3cc[nH]cc-3n2)c1`, the EC50 in [1] and in [2] was > 300 µM (not active) each time.
Take `COc1ccccc1Nc1nc2nonc2nc1N1CCCCC1C` (centres undefined): the EC50 is > 300 µM (not active) in experiment [1] and 95.5 µM (active) in experiment [2].
As to `NC(CCCCc1ccccc1)c1cccc2ccccc12` (centres undefined), the EC50 in experiment [3] was 24.6 µM (active); in [4] it was > 112 µM (not active).
`CC(=O)c1cc(NC(=O)c2ccc(C)cc2)c(=O)oc1/C=C/N(C)C`: in [5], the EC50 was 6.73 µM (active).
Regarding `CCOC(=O)C1CCCN(C(=O)c2ccc3oc(Cc4ccccc4)nc3c2)C1` (centres undefined), the EC50 in [3] was > 112 µM (not active); in the experiment on H4, 36.4 µM (active); in [6], 16.2 µM (active); in experiment [4] it was > 112 µM (not active); in [7], 13.9 µM (active).
Consider `Cc1n[nH]c(S/C(=C/c2ccc(-c3cccc(Cl)c3)o2)C(=O)O)n1`, for which the EC50 in experiment [1] is 69.5 µM (active); in [2], > 300 µM (not active).
Turning to `COC(=O)Cn1/c(=N/C(=O)CSC(C)=O)sc2ccccc21`, the EC50 in experiment [3] and in experiment [4] was > 112 µM (not active) in each case.
Take `C=CCOc1ccc(/C=C2\SC(N)=NC2=O)cc1OC`: the EC50 in the experiment “cells [8]” and in “cells [9]” was > 350 µM (not active) each time.
`COc1ccccc1OCc1nnc(SCC(=O)NCc2ccco2)n1-c1ccccc1`: the EC50 in the experiment “cells [8]” and in “cells [9]” was > 350 µM (not active) throughout.
Consider `CC(=O)Nc1ccc(CN2CCCC(CO)(Cc3cccc(Cl)c3)C2)cc1` (centres undefined), for which the EC50 in experiment [5] is > 53 µM (inactive).
Regarding `O=C(/C=C/c1cn(-c2ccccc2)nc1-c1ccccc1)Nc1ccc(C(=O)O)cc1`, the EC50 in experiment [10] is 6.15 µM (active); with Streptococcus, 15.5 µM (active); at Streptokinase A, > 150 µM (not active); in the experiment “cells [8]” it was > 350 µM (not active); in the experiment “cells [9]” it was 24.8 µM (active).
Regarding `CC(C)(C)OC(=O)NCCCCC1=CC2=CC(=O)C(C)(OC(=O)c3ccco3)C(=O)C2=CO1` (centres undefined), the EC50 in [1] was 30.3 µM (active); in [2], 35.5 µM (active).
The matching figures for `Cc1cc(O)cc2c1C(=O)/C(=C/c1ccco1)O2`: > 300 µM (not active) and 15.8 µM (active).
Take `COc1ccc(S(=O)(=O)N(Cc2cccnc2)Cc2cc3ccccc3nc2O)cc1`: the EC50 in experiment [3] and in experiment [4] was > 112 µM (not active) throughout.
Turning to `NC(=Nc1ccc(N)cc1)C(N)=Nc1ccc(N)cc1`, the EC50 in experiment [1] is 42.8 µM (active); in experiment [2] it was > 300 µM (not active).
Take `CN(C)S(=O)(=O)c1ccc(Cl)c(NC(=O)COc2ccccc2[N+](=O)[O-])c1`: the EC50 in experiment [3] and in [4] was > 112 µM (not active) each time.
For orientation: AC50 means the concentration giving half of the maximal activity seen. As for `C=CCc1cccc(/C=N/NC(=O)c2ccc3[nH]cnc3c2)c1O`, the AC50 was 1.61 µM (active) with INS1 and 3.81 µM (active) in experiment [11]. Also, the EC50 in “cells [8]” was 11.8 µM (active); in the experiment “cells [9]” it was 44.5 µM (active).
In the case of `Cn1c(CCNC(=O)c2ccco2)nc2cc(NC(=O)C3CCCCC3)ccc21`, the EC50 in the experiment “cells [8]” is > 350 µM (not active); in “cells [9]”, 97.8 µM (active).
Take `CC1(C)C[C@H](O)[C@@]23C[C@@H](OC2=O)[C@]2(C)C(=CCC4[C@@]5(C)CC[C@H](O)C(C)(C)C5CC[C@]42C)[C@@H]3C1` (some centres undefined): the EC50 in experiment [5] is 5.32 µM (active).
In the case of `O=C1CSC(=S)N1N1C(=O)c2cccc([N+](=O)[O-])c2C1=O`, the EC50 was 24.8 µM (active) in experiment [1] and 24.9 µM (active) in experiment [2].
As for `Cc1ccc2cccc(S(=O)(=O)N3CCCc4ccccc43)c2n1`, the EC50 is 15.8 µM (active) in experiment [3], 11.9 µM (active) in experiment [5] and 34 µM (active) in [4].
Take `Cc1ccc2[nH]c3c(c2c1)CN(C(=O)CN1CCN(C(=O)c2ccco2)CC1)CC3`: the EC50 in [1] was 68 µM (active); in experiment [2], 112 µM (active).
For the molecule `COc1ncnc2sc(-c3ccccc3)cc12`, the EC50 in experiment [3] is 6.33 µM (active); in experiment [4], 2.4 µM (active).
For `N=c1c(C(=O)NC2CCCCC2)cc2c(=O)n3ccccc3nc2n1CCc1ccccc1`, the figures for the EC50 in experiment [1] and in [2] were 16.1 µM (active) and 15.2 µM (active), respectively.
Regarding `C=CCN1C(=O)/C(=C2/Sc3ccccc3N2C)S/C1=N\c1c(C)n[nH]c1C`, the EC50 is 17.5 µM (active) in experiment [3] and > 112 µM (not active) in [4].
For `O=[N+]([O-])c1ccc(/N=C/c2ccc(Br)c([N+](=O)[O-])c2)cc1`, the EC50 in the experiment “cells [8]” and in “cells [9]” was > 350 µM (not active) throughout.
`Cc1ccc2nc3c(O)n(CC(=O)NCCCN(C)Cc4ccccc4)ncc-3c2c1`: the EC50 in the experiment “cells [8]” and in “cells [9]” was > 350 µM (not active) each time.
Regarding `CNc1c(N)n(Cc2ccccc2)c(=O)[nH]c1=O`, the EC50 in experiment [1] was 92.1 µM (inconclusive); in experiment [2], > 300 µM (not active).
On to `CCCC(=O)C1=C(N2CCCCC2)CC(C)(C)C(C(=O)OC)C1=O` (centres undefined), for which the EC50 in experiment [3] and in experiment [4] was > 112 µM (not active) throughout.
